Literature values in patent US7022724B2, “Cognition enhancing derivatives of isoxazole triazoloindane GABA-A α5 receptor subunit ligands” (Merck Sharp & Dohme Ltd., priority 2001, dated 2006).

Tests used:
[1] = background statement
[2] = reported by McNamara and Skelton, Psychobiology 21:101–108

## COC(=O)c1cc2c(cn1)[nH]c1ccccc12 [β-CCM]
[1]
  proconvulsant effect: proconvulsant
[2]
  spatial learning in the Morris watermaze: enhanced spatial learning
